Results reported in paper PMC10803328 (Scientific Reports, 2024).
Values joined by “and” are separate entries in the source; they are usually repeats but may differ in a detail not shown here. Equal entries are not always repeated. “Also recorded” adds a separate entry of the source.

Assays:
[1] = In vitro stability in rat brain homogenate, whole blood and plasma; type: in vitro ADME
Procedure: (§1) In vitro stability was calculated by dividing the relative composition of the blood or brain homogenate determined with radio-HPLC by the initial radiochemical purity of the radioligand. […] The mixture was incubated at room temperature for 10 min and then processed exactly as described previously. The ultrafiltration components that contained high radioactivity were allowed time for radioactivity decay to within the optimal range of the γ-counter before they were counted again.
Five milliliters of anticoagulated blood (STD-A) and brain (1.8 g) were harvested from a wild-type rat (~ 450 g) and used in the in vitro assays. The brains were immediately weighed and homogenized with twice their weights (3.6 mL) of ice cold 0.9% NaCl solution. Plasmas were separated from whole blood via centrifugation. […] Following incubation, aliquots (450 µL) were removed for radio-analysis and processed as detailed above for radio-HPLC analysis.
Anticoagulated blood (STD-A; 5 mL) and brain (1.8 g) were harvested from a wild-type rat (~ 450 g) and used for the in vitro assays. The brains were immediately weighed and homogenized with twice their weights (3.6 mL) of ice-cold 0.9% saline. Plasma was separated from whole blood via centrifugation. […] Aliquots (450 µL) were then removed for radio analysis and processed as detailed above for radio-HPLC analysis.

[2] = Plasma free fraction, monkey plasma; type: in vitro ADME, rhesus monkey; conditions: baseline
Procedure: as §1

[3] = Lipophilicity measurement (logD7.4) by partition; type: physicochemical; conditions: n = 6
Procedure: Aliquots were distributed to 16 borosilicate disposable culture tubes (13 × 100 mm). The tubes were divided into two groups of […]. […] Extraction was performed by vortexing the tubes with their content for 1 min. The tubes were then centrifuged for 1 min. The organic and the aqueous phases were separated, and each phase was then sampled (50 µL) and counted separately in a well-type γ-counter (model 1480 Wizard; Perkin-Elmer) with an electronic window set between 360 and 1800 keV. The remaining two tubes, containing the radioactivity in buffer, served as stability measures for the radioligand. […] The aqueous phases were injected onto the HPLC. The resulting radiochromatograms provided correction factors for the γ-counter counts, of the aqueous samples, to determine parent radioligand radioactivity only (corrected radioactivity)[32]. LogD7.4octanol and logD7.4cyclohexane were each calculated as log((cpm in organic phase)/(corrected cpm in aqueous phase)).

[4] = Ex vivo measurements of radioactivity in rat brain and blood 100 min after i.v. injection
Procedure: Other experimental parameters that governed this study are listed in Supporting Information, Table S1. […] The rats were sacrificed via thoracotomy 100 min after radioligand injection. Anticoagulated blood was drawn from the myocardium followed by decapitation and harvesting of the brain. Each brain was removed, weighed, and immediately subjected to radio analysis after counting its concomitant radioactivity. Whole blood samples were removed and centrifuged to separate the plasma. Whole blood (300 µL each) and plasma samples (300 µL each) were also quantified for radioactivity in an automatic γ-counter (model 2480 Wizard 2; Perkin-Elmer) with an electronic window set at 360–1800 keV (counting efficiency, 51.84%). Briefly, plasma samples (~ 450 µL) were deproteinated with acetonitrile treatment (720 µL). The radioactivity of various plasma and brain tissues were counted in the γ-counter. Brain tissues were then homogenized in acetonitrile (1.0 mL) using a handheld tissue Tearor (model 985-370; BioSpec Products Inc; Bartlesville, OK), followed by a second homogenization in water (1.0 mL). The homogenates were counted in the γ-counter to calculate the percentage recovery of radioactivity in the acetonitrile extracts. Corrections of all tissue assays for physical decay were made with a half-life of 20.385 min. The homogenates were then centrifuged at 10,000g for 2 min. The clear supernatants were injected onto the HPLC column through nylon filters. For each sample, radioactivity in the resulting precipitate was used to calculate the percent recovery of activity into the acetonitrile supernatant.

[5] = system: efflux transporters (P-gp and BCRP); assay: PET imaging in wild-type and dual efflux transporter knockout mice; type: in vivo, mouse
Procedure: (§2) All PET imaging studies were performed with a Mediso LFER 150 preclinical scanner (nanoScan PET/CT). Brain and brain region radioactivity uptake was expressed by standardized uptake value (SUV) which normalizes for injected radioactivity and monkey body weight, as follows: SUV = [(% injected dose per g tissue) × body weight in g]/100.
Radioligand was injected intravenously via a tail vein catheter followed by PET imaging for 90 min. Whole brain uptake in SUV was compared between wild type and knockout mice.

PSAM^4-GlyR = assay: PET imaging and arterial plasma radiometabolite analysis in monkey transduced with PSAM^4-GlyR in the left amygdala; type: in vivo, rhesus monkey
Procedure: All studies were conducted in accordance with “Animal Research: Reporting of In Vivo Experiments” guidelines as well as Guidelines for the Care and Use of Laboratory Animals, 8th Edition, and were approved by the National Institute of Mental Health Animal Care and Use Committee. A lentivirus carrying an PSAM^4 expressed under a human synapsin promoter (Lenti-hSyn-PSAM^4-GlyR) was injected into the left amygdala of a single rhesus macaque (11-year-old male). 14 × 20 μL of virus was injected at 1.0 μL/min speed. The virus titer was measured at 1 × 10^9 i.u./mL. The surgery was performed under aseptic conditions in a fully equipped operating suite.
as §2
Two male rhesus monkeys (macaca mulatta; 10.0 and 8.6 kg) underwent PET scanning. Each monkey was initially immobilized with ketamine (10 mg/kg, i.m.) and then maintained under anesthesia with 1.5% isoflurane. For each monkey, a baseline scan was performed for 120 min. […] Electrocardiogram, body temperature, heart, and respiration rates were monitored throughout the scans.
Total radioactivity concentrations in sampled arterial whole blood and plasma were measured in a γ-counter throughout the 90-min scanning period.
PET images were reconstructed using Fourier rebinding plus two-dimensional filtered back-projection with attenuation and scatter correction. Images were co-registered to a standardized monkey MRI template using the FMRIB Software Library (FSL; Oxford, UK). Thirty-four predefined brain regions of interest from the template were applied to the co-registered PET image to obtain regional, decay-corrected, time-activity curves.

[6] = in vitro incubation at 37 °C, rat
[7] = Rat-3, blocked with uPSEM792, 100 min
[8] = Rat-3, blocked with uPSEM792 i.v. 15 min before radioligand, 100 min
[9] = baseline rats (Rat-1, Rat-2), 100 min
[10] = baseline rats (Rat-1, Rat-2), 100 min after injection
[11] = rat, ex vivo, 100 min after i.v. injection, HPLC

[11CH3]n1c(=O)cnc2cc3c(cc21)C1CNCC3C1 (centres unmarked) [[^11C]uPSEM792]
in vitro stability in homogenized non-perfused rat brain ([1]; 30 min at 37 °C): 94%
in vitro stability in rat plasma ([1]; 30 min at 37 °C): 85.4%
in vitro stability in rat whole blood ([1]; 30 min at 37 °C): 83.8%
HPLC Composition (%), in vitro fresh rat brain ([1]; in vitro incubation at 37 °C): 92%
HPLC Composition (%), in vitro plasma [1, 6]: 83%
HPLC Composition (%), in vitro whole blood [1, 6]: 82%
fP (%) ([2]; PSAM^4-GlyR monkey): 89.42%
fP (%) ([2]; non-transduced healthy monkey): 89.29%
ΔLogD7.4 (logD7.4(octanol) − logD7.4(cyclohexane)) [3]: 2.45 ± 0.03
Ex vivo brain [4, 7]: 0.72 nM
Ex vivo brain (SUV) [4, 7]: 0.401 SUV
Ex vivo plasma parent (SUV) [4, 7]: 0.064 SUV
Ex vivo whole blood (SUV) [4, 7]: 0.163 SUV
HPLC Composition (%), ex vivo brain [4, 8]: 68.3%
HPLC Composition (%), ex vivo plasma [4, 8]: 37.1%
Ex vivo brain [4, 9]: 0.68 nM and 0.83 nM
Ex vivo brain (SUV) [4, 9]: 0.407 SUV and 0.468 SUV
Ex vivo plasma parent (SUV) [4, 9]: 0.063 SUV and 0.064 SUV
Ex vivo whole blood (SUV) [4, 9]: 0.141 SUV and 0.163 SUV
HPLC Composition (%), ex vivo brain [4, 10]: 78.3% and 75.6%
HPLC Composition (%), ex vivo plasma [4, 10]: 43.0% and 37.9%
total radioactivity concentration in rat brain ([4]; ex vivo, 100 min after i.v. injection): ~ 0.4 SUV
Kp at 100 min ([4]; male, brain and plasma, intravenous, rat, 100 min, read-out: fold lower concentration of unchanged radioligand in plasma than in brain): 6.7
concentration of unchanged radioligand in plasma ([4]; rat, 100 min, n = 3): 0.064 ± 0.001 SUV
unchanged radioligand as share of radioactivity in brain [4, 11]: 75.6%
unchanged radioligand fraction of all radioactivity in plasma [4, 11]: 37.9%
substrate for efflux transporters in vivo ([5]; dual P-gp and BCRP knockout vs wild-type mice): substrate for efflux transporters in vivo
early peak brain radioactivity uptake ([5]; dual efflux transporter (P-gp and BCRP) knockout mice, i.v.): ~ 0.7 SUV
difference in uptake of radioactivity between left (PSAM^4-GlyR) and right amygdala (PSAM^4-GlyR; PSAM^4-GlyR monkey, PET): No significant difference
evidence of PSAM^4-GlyR specific binding in left amygdala (PSAM^4-GlyR; PSAM^4-GlyR monkey, PET, compartmental modeling): do not reveal any evidence of specific binding; also recorded: no evidence was obtained for PSAM^4-GlyR specific binding
time at which radiometabolites accounted for 50% of radioactivity in plasma (PSAM^4-GlyR; male, rhesus monkey, in vivo): 30 min
peak whole brain radioactivity uptake (PSAM^4-GlyR; monkey transduced in the left amygdala with PSAM^4-GlyR, i.v., PET): ~ 0.8 SUV
